The supplement of paper PMC10307832

Tests used:
Test in all cases: relative viability (nuclei count vs DMSO), 5 days (fraction); higher = more cells survive
NCI-H2023 = system: NCI-H2023
How it was run: (§1)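 After 5 days of treatment, lung cancer cells in 1536-well plates were fixed and stained in a single step (final 0.05% Triton X-100, 1% formaldehyde, 1 ug/ml Hoechst) and their nuclei counted on 4× images. Treatment had been applied by pin tool the day after seeding as one drug alone or as a fixed anchor-drug dose with five library-drug doses (not always all listed) in √10 steps. Relative viability is the nuclei count of treated wells divided by that of vehicle wells, and values are medians of duplicate plates.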

HCC-44 = system: HCC-44
How it was run: as §1

HCC-366 = system: HCC-366
How it was run: as §1

NCI-H441 = system: NCI-H441
How it was run: as §1

NCI-H1975 = system: NCI-H1975
How it was run: as §1

NCI-H1651 = system: NCI-H1651
How it was run: as §1

NCI-H2085 = system: NCI-H2085
How it was run: as §1

LU99A = system: LU99A
How it was run: as §1

NCI-H1734 = system: NCI-H1734
How it was run: as §1

CAL-12T = system: CAL-12T
How it was run: as §1

NCI-H2342 = system: NCI-H2342
How it was run: as §1

NCI-H358 = system: NCI-H358
How it was run: as §1

NCI-H1395 = system: NCI-H1395
How it was run: as §1

NCI-H460 = system: NCI-H460
How it was run: as §1

NCI-H1355 = system: NCI-H1355
How it was run: as §1

BEN = system: BEN
How it was run: as §1

NCI-H1650 = system: NCI-H1650
How it was run: as §1

NCI-H1755 = system: NCI-H1755
How it was run: as §1

EKVX = system: EKVX
How it was run: as §1

NCI-H1437 = system: NCI-H1437
How it was run: as §1

NCI-H838 = system: NCI-H838
How it was run: as §1

LOU-NH91 = system: LOU-NH91
How it was run: as §1

SMILES: O=C(O)c1ccc(-c2c[nH]c3ncc(-c4ccccc4)cc23)cc1C1CCCC1 + O=C(CCCCCCC(=O)Nc1ccccc1)NO [Vorinostat] (partner 1 µM)
- relative viability (NCI-H2023; first compound 0.04 µM): 0.825
- relative viability (NCI-H2023; first compound 0.1265 µM): 0.967
- relative viability (NCI-H2023; first compound 0.4 µM): 0.523
- relative viability (NCI-H2023; first compound 1.265 µM): 0.507
- relative viability (HCC-44; first compound 0.04 µM): 1.04
- relative viability (HCC-44; first compound 0.1265 µM): 1.06
- relative viability (HCC-44; first compound 0.4 µM): 1.02
- relative viability (HCC-44; first compound 1.265 µM): 0.971
- relative viability (HCC-366; first compound 0.04 µM): 0.368
- relative viability (HCC-366; first compound 0.1265 µM): 0.531
- relative viability (HCC-366; first compound 0.4 µM): 0.394
- relative viability (HCC-366; first compound 1.265 µM): 0.403
- relative viability (NCI-H441; first compound 0.04 µM): 0.866
- relative viability (NCI-H441; first compound 0.1265 µM): 0.837
- relative viability (NCI-H441; first compound 0.4 µM): 0.615
- relative viability (NCI-H441; first compound 1.265 µM): 0.445
- relative viability (NCI-H1975; first compound 0.04 µM): 0.684
- relative viability (NCI-H1975; first compound 0.1265 µM): 0.763
- relative viability (NCI-H1975; first compound 0.4 µM): 0.736
- relative viability (NCI-H1975; first compound 1.265 µM): 0.441
- relative viability (NCI-H1651; first compound 0.04 µM): 0.349
- relative viability (NCI-H1651; first compound 0.1265 µM): 0.596
- relative viability (NCI-H1651; first compound 0.4 µM): 0.62
- relative viability (NCI-H1651; first compound 1.265 µM): 0.462
- relative viability (NCI-H2085; first compound 0.04 µM): 0.793
- relative viability (NCI-H2085; first compound 0.1265 µM): 0.857
- relative viability (NCI-H2085; first compound 0.4 µM): 0.779
- relative viability (NCI-H2085; first compound 1.265 µM): 0.642
- relative viability (LU99A; first compound 0.04 µM): 0.583
- relative viability (LU99A; first compound 0.1265 µM): 0.46
- relative viability (LU99A; first compound 0.4 µM): 0.469
- relative viability (LU99A; first compound 1.265 µM): 0.421
- relative viability (NCI-H1734; first compound 0.04 µM): 0.866
- relative viability (NCI-H1734; first compound 0.1265 µM): 0.858
- relative viability (NCI-H1734; first compound 0.4 µM): 0.876
- relative viability (NCI-H1734; first compound 1.265 µM): 0.648
- relative viability (CAL-12T; first compound 0.04 µM): 0.721
- relative viability (CAL-12T; first compound 0.1265 µM): 0.91
- relative viability (CAL-12T; first compound 0.4 µM): 0.73
- relative viability (CAL-12T; first compound 1.265 µM): 0.668
- relative viability (NCI-H2342; first compound 0.04 µM): 0.783
- relative viability (NCI-H2342; first compound 0.1265 µM): 0.762
- relative viability (NCI-H2342; first compound 0.4 µM): 0.818
- relative viability (NCI-H2342; first compound 1.265 µM): 0.874
- relative viability (NCI-H358; first compound 0.04 µM): 0.574
- relative viability (NCI-H358; first compound 0.1265 µM): 0.795
- relative viability (NCI-H358; first compound 0.4 µM): 0.536
- relative viability (NCI-H358; first compound 1.265 µM): 0.229
- relative viability (NCI-H1395; first compound 0.04 µM): 0.7
- relative viability (NCI-H1395; first compound 0.1265 µM): 0.67
- relative viability (NCI-H1395; first compound 0.4 µM): 0.672
- relative viability (NCI-H1395; first compound 1.265 µM): 0.683
- relative viability (NCI-H460; first compound 0.04 µM): 0.642
- relative viability (NCI-H460; first compound 0.1265 µM): 0.842
- relative viability (NCI-H460; first compound 0.4 µM): 0.831
- relative viability (NCI-H460; first compound 1.265 µM): 0.603
- relative viability (NCI-H1355; first compound 0.04 µM): 0.647
- relative viability (NCI-H1355; first compound 0.1265 µM): 0.753
- relative viability (NCI-H1355; first compound 0.4 µM): 0.694
- relative viability (NCI-H1355; first compound 1.265 µM): 0.615
- relative viability (BEN; first compound 0.04 µM): 0.507
- relative viability (BEN; first compound 0.1265 µM): 0.614
- relative viability (BEN; first compound 0.4 µM): 0.475
- relative viability (BEN; first compound 1.265 µM): 0.505
- relative viability (NCI-H1650; first compound 0.04 µM): 0.418
- relative viability (NCI-H1650; first compound 0.1265 µM): 0.513
- relative viability (NCI-H1650; first compound 0.4 µM): 0.538
- relative viability (NCI-H1650; first compound 1.265 µM): 0.476
- relative viability (NCI-H1755; first compound 0.04 µM): 0.762
- relative viability (NCI-H1755; first compound 0.1265 µM): 0.806
- relative viability (NCI-H1755; first compound 0.4 µM): 0.797
- relative viability (NCI-H1755; first compound 1.265 µM): 0.745
- relative viability (EKVX; first compound 0.04 µM): 0.846
- relative viability (EKVX; first compound 0.1265 µM): 0.758
- relative viability (EKVX; first compound 0.4 µM): 0.713
- relative viability (EKVX; first compound 1.265 µM): 0.712
- relative viability (NCI-H1437; first compound 0.04 µM): 0.842
- relative viability (NCI-H1437; first compound 0.1265 µM): 0.814
- relative viability (NCI-H1437; first compound 0.4 µM): 0.531
- relative viability (NCI-H1437; first compound 1.265 µM): 0.326
- relative viability (NCI-H838; first compound 0.04 µM): 0.68
- relative viability (NCI-H838; first compound 0.1265 µM): 0.773
- relative viability (NCI-H838; first compound 0.4 µM): 0.771
- relative viability (NCI-H838; first compound 1.265 µM): 0.544
- relative viability (LOU-NH91; first compound 0.04 µM): 0.987
- relative viability (LOU-NH91; first compound 0.1265 µM): 0.992
- relative viability (LOU-NH91; first compound 0.4 µM): 0.942
- relative viability (LOU-NH91; first compound 1.265 µM): 0.86
